Source: ChEMBL document CHEMBL1201861, “Genomics of Drug Sensitity in Cancer screening data, Wellcome Trust Sanger Institute”

Columns and labels:
Experiment in all cases: cells
Assay type in all cases: functional, cell-based, Homo sapiens
[1] = system: KURAMOCHI; conditions: Homo sapiens, KURAMOCHI;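 further: growth inhibition of KURAMOCHI cells, read out with a cell viability assay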
Description: SANGER: Inhibition of human KURAMOCHI cell growth in a cell viability assay.

[2] = system: IST-MEL1; conditions: Homo sapiens, IST-MEL1;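 further: growth inhibition of the cell line, read out with a cell viability assay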
Description: SANGER: Inhibition of human IST-MEL1 cell growth in a cell viability assay.

[3] = system: ES6; conditions: Homo sapiens, ES6;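 further: growth inhibition of human ES6 cells, read out with a cell viability assay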
Description: SANGER: Inhibition of human ES6 cell growth in a cell viability assay.

[4] = system: SK-MEL-1; conditions: Homo sapiens, SK-MEL-1;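 further: growth inhibition of human SK-MEL-1 cells, read out by a cell viability assay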
Description: SANGER: Inhibition of human SK-MEL-1 cell growth in a cell viability assay.

[5] = system: QIMR-WIL; conditions: Homo sapiens, QIMR-WIL;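 further: growth inhibition of QIMR-WIL cells, read out with a cell viability assay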
Description: SANGER: Inhibition of human QIMR-WIL cell growth in a cell viability assay.

[6] = system: SF-268; conditions: Homo sapiens, SF-268;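 further: growth inhibition of SF-268 cells determined with a cell viability assay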
Description: SANGER: Inhibition of human SF268 cell growth in a cell viability assay.

[7] = system: NB10; conditions: Homo sapiens, NB10;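 further: growth inhibition of NB10 cells, read out by a cell viability assay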
Description: SANGER: Inhibition of human NB10 cell growth in a cell viability assay.

[8] = system: U-266; conditions: Homo sapiens, U-266
Description: SANGER: Inhibition of human U-266 cell growth in a cell viability assay.

[9] = system: NCI-H1770; conditions: Homo sapiens, NCI-H1770;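 further: growth inhibition of NCI-H1770 cells determined with a viability readout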
Description: SANGER: Inhibition of human NCI-H1770 cell growth in a cell viability assay.

[10] = system: SF-539; conditions: Homo sapiens, SF-539;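 further: Read-out is a cell viability assay, with IC50 reflecting inhibition of cell growth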
Description: SANGER: Inhibition of human SF539 cell growth in a cell viability assay.

[11] = system: LS-513; conditions: Homo sapiens, LS-513
Description: SANGER: Inhibition of human LS-513 cell growth in a cell viability assay.

[12] = system: ETK-1; conditions: Homo sapiens, ETK-1;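 further: growth inhibition of human ETK-1 cells, read out with a cell viability assay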
Description: SANGER: Inhibition of human ETK-1 cell growth in a cell viability assay.

[13] = system: NCI-H82; conditions: Homo sapiens, NCI-H82;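 further: growth inhibition of NCI-H82 cells, measured with a cell viability readout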
Description: SANGER: Inhibition of human NCI-H82 cell growth in a cell viability assay.

[14] = system: TE-6; conditions: Homo sapiens, TE-6;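 further: growth inhibition of TE-6 cells, read out with a cell viability assay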
Description: SANGER: Inhibition of human TE-6 cell growth in a cell viability assay.

[15] = system: NCI-H1395; conditions: Homo sapiens, NCI-H1395;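 further: cell viability assay read-out quantifying reduced proliferation of human NCI-H1395 cells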
Description: SANGER: Inhibition of human NCI-H1395 cell growth in a cell viability assay.

[16] = system: DSH1; conditions: Homo sapiens, DSH1;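 further: growth inhibition of human DSH1 cells, measured with a cell viability readout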
Description: SANGER: Inhibition of human DSH1 cell growth in a cell viability assay.

[17] = system: 8-MG-BA; conditions: Homo sapiens, 8-MG-BA;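 further: growth inhibition of 8-MG-BA cells, read out with a cell viability assay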
Description: SANGER: Inhibition of human 8-MG-BA cell growth in a cell viability assay.

[18] = system: BB49-HNC; conditions: Homo sapiens, BB49-HNC;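 further: cell viability assay read-out, reported as inhibition of BB49-HNC cell growth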
Description: SANGER: Inhibition of human BB49-HNC cell growth in a cell viability assay.

[19] = system: HCE-T; conditions: Homo sapiens, HCE-T;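 further: cell viability assay read-out, reporting inhibition of HCE-T cell growth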
Description: SANGER: Inhibition of human HCE-T cell growth in a cell viability assay.

[20] = system: Mo; conditions: Homo sapiens, Mo
Description: SANGER: Inhibition of human Mo-T cell growth in a cell viability assay.

[21] = system: MOLT-4; conditions: Homo sapiens, MOLT-4;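 further: growth inhibition of MOLT-4 cells, determined with a cell viability readout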
Description: SANGER: Inhibition of human MOLT-4 cell growth in a cell viability assay.

[22] = system: RPMI-8866; conditions: Homo sapiens, RPMI-8866
Description: SANGER: Inhibition of human RPMI-8866 cell growth in a cell viability assay.

[23] = system: COLO-829; conditions: Homo sapiens, COLO-829
Description: SANGER: Inhibition of human COLO-829 cell growth in a cell viability assay.

[24] = system: EW-24; conditions: Homo sapiens, EW-24;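 further: human EW-24 cancer cell line, growth inhibition read out via a cell viability assay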
Description: SANGER: Inhibition of human EW-24 cell growth in a cell viability assay.

[25] = system: RXF 393; conditions: Homo sapiens, RXF 393;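 further: growth inhibition of human RXF 393 cells, read out with a cell viability assay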
Description: SANGER: Inhibition of human RXF393 cell growth in a cell viability assay.

[26] = system: KE-37; conditions: Homo sapiens, KE-37;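 further: growth inhibition of KE-37 cells, read out with a cell viability assay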
Description: SANGER: Inhibition of human KE-37 cell growth in a cell viability assay.

[27] = system: KG-1; conditions: Homo sapiens, KG-1;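 further: growth inhibition of KG-1 cells, read out by a cell viability assay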
Description: SANGER: Inhibition of human KG-1 cell growth in a cell viability assay.

[28] = system: KM-H2; conditions: Homo sapiens, KM-H2;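 further: growth inhibition of KM-H2 cells, read out by a cell viability assay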
Description: SANGER: Inhibition of human KM-H2 cell growth in a cell viability assay.

[29] = system: KNS-81-FD; conditions: Homo sapiens, KNS-81-FD;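 further: growth inhibition of KNS-81-FD cells, read out with a cell viability assay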
Description: SANGER: Inhibition of human KNS-81-FD cell growth in a cell viability assay.

[30] = system: HCC2157; conditions: Homo sapiens, HCC2157;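 further: growth inhibition of the cancer cell line, read out as cell viability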
Description: SANGER: Inhibition of human HCC2157 cell growth in a cell viability assay.

[31] = system: EW-13; conditions: Homo sapiens, EW-13;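 further: growth inhibition of EW-13 cells, read out with a cell viability assay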
Description: SANGER: Inhibition of human EW-13 cell growth in a cell viability assay.

[32] = system: MS-1; conditions: Homo sapiens, MS-1;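 further: growth inhibition of MS-1 cells, read out by cell viability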
Description: SANGER: Inhibition of human MS-1 cell growth in a cell viability assay.

[33] = system: LS-1034; conditions: Homo sapiens, LS-1034
Description: SANGER: Inhibition of human LS-1034 cell growth in a cell viability assay.

[34] = system: TGBC1TKB; conditions: Homo sapiens, TGBC1TKB;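 further: growth inhibition of TGBC1TKB cells, read out by a cell viability assay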
Description: SANGER: Inhibition of human TGBC1TKB cell growth in a cell viability assay.

[35] = system: KARPAS-45; conditions: Homo sapiens, KARPAS-45;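 further: inhibition of cell line growth, read out through a viability assay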
Description: SANGER: Inhibition of human KARPAS-45 cell growth in a cell viability assay.

[36] = system: LU-134-A; conditions: Homo sapiens, LU-134-A
Description: SANGER: Inhibition of human LU-134-A cell growth in a cell viability assay.

[37] = system: CAS-1; conditions: Homo sapiens, CAS-1;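 further: growth inhibition of CAS-1 cells, measured with a cell viability assay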
Description: SANGER: Inhibition of human CAS-1 cell growth in a cell viability assay.

[38] = system: LB771-HNC; conditions: Homo sapiens, LB771-HNC;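 further: growth inhibition of LB771-HNC human cells, read out with a cell viability assay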
Description: SANGER: Inhibition of human LB771-HNC cell growth in a cell viability assay.

[39] = system: A4-Fuk; conditions: Homo sapiens, A4-Fuk;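 further: growth inhibition of A4-Fuk cells, read out by a cell viability assay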
Description: SANGER: Inhibition of human A4-Fuk cell growth in a cell viability assay.

[40] = system: NCI-H1650; conditions: Homo sapiens, NCI-H1650;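 further: growth inhibition of human NCI-H1650 cells measured by a cell viability assay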
Description: SANGER: Inhibition of human NCI-H1650 cell growth in a cell viability assay.

[41] = system: OCUB-M; conditions: Homo sapiens, OCUB-M;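 further: growth inhibition of the cancer cell line, read out through a cell viability assay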
Description: SANGER: Inhibition of human OCUB-M cell growth in a cell viability assay.

[42] = system: BB30-HNC; conditions: Homo sapiens, BB30-HNC;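 further: growth inhibition of the cultured cell line, read out by a cell viability assay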
Description: SANGER: Inhibition of human BB30-HNC cell growth in a cell viability assay.

[43] = system: NOS-1; conditions: Homo sapiens, NOS-1;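 further: growth inhibition of the human NOS-1 cell line, read out with a cell viability assay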
Description: SANGER: Inhibition of human NOS-1 cell growth in a cell viability assay.

[44] = system: JVM-2; conditions: Homo sapiens, JVM-2;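 further: growth inhibition of JVM-2 cells determined by a cell viability assay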
Description: SANGER: Inhibition of human JVM-2 cell growth in a cell viability assay.

[45] = system: NOMO-1; conditions: Homo sapiens, NOMO-1;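 further: growth inhibition of human NOMO-1 cells measured by a cell viability assay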
Description: SANGER: Inhibition of human NOMO-1 cell growth in a cell viability assay.

[46] = system: COLO-668; conditions: Homo sapiens, COLO-668
Description: SANGER: Inhibition of human COLO-668 cell growth in a cell viability assay.

[47] = system: SCH; conditions: Homo sapiens, SCH;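 further: growth inhibition of human SCH cells, read out in a cell viability assay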
Description: SANGER: Inhibition of human SCH cell growth in a cell viability assay.

[48] = system: RS4-11; conditions: Homo sapiens, RS4-11;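 further: growth inhibition of RS4-11 cells, read out by a cell viability assay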
Description: SANGER: Inhibition of human RS4-11 cell growth in a cell viability assay.

`COc1cc(N2CCN(C)CC2)ccc1Nc1ncc2c(n1)N(C)c1ccccc1C(=O)N2C` was tested, and the IC50 [1] was > 8 µM, the IC50 [2] was > 8 µM and the IC50 [3] was > 8 µM. The IC50 [4] was > 8 µM, the IC50 [5] was 6.32 µM and the IC50 [6] was 7.55 µM. For the same compound, the IC50 [7] was > 8 µM, the IC50 [8] was > 8 µM and the IC50 [9] was 4.74 µM. The IC50 [10] was > 8 µM, the IC50 [11] was 5.86 µM and the IC50 [12] was > 8 µM. For the same compound, the IC50 [13] was > 8 µM, the IC50 [14] was > 8 µM and the IC50 [15] was > 8 µM. For the same compound, the IC50 [16] was > 8 µM, the IC50 [17] was > 8 µM and the IC50 [18] was > 8 µM. The IC50 [19] was > 8 µM, the IC50 [20] was > 8 µM and the IC50 [21] was > 8 µM. The IC50 [22] was > 8 µM, the IC50 [23] was > 8 µM and the IC50 [24] was > 8 µM. The IC50 [25] was > 8 µM, the IC50 [26] was > 8 µM and the IC50 [27] was > 8 µM. The IC50 [28] was > 8 µM, the IC50 [29] was > 8 µM and the IC50 [30] was > 8 µM. The IC50 [31] was > 8 µM, the IC50 [32] was 4.67 µM and the IC50 [33] was > 8 µM. For the same compound, the IC50 [34] was > 8 µM, the IC50 [35] was 3.97 µM and the IC50 [36] was > 8 µM. The IC50 [37] was > 8 µM, the IC50 [38] was > 8 µM and the IC50 [39] was 3.86 µM. The IC50 [40] was > 8 µM, the IC50 [41] was > 8 µM and the IC50 [42] was 4.51 µM. For the same compound, the IC50 [43] was 3.57 µM, the IC50 [44] was > 8 µM and the IC50 [45] was > 8 µM. For the same compound, the IC50 [46] was > 8 µM, the IC50 [47] was > 8 µM and the IC50 [48] was 3.42 µM.

With `CC[C@H](CO)Nc1nc(NCc2ccccc2)c2ncn(C(C)C)c2n1` [SELICICLIB] the IC50 [2] was > 16 µM, the IC50 [3] was > 16 µM and the IC50 [4] was > 16 µM. For the same compound, the IC50 [5] was > 16 µM, the IC50 [6] was > 16 µM and the IC50 [7] was > 16 µM. The IC50 [8] was > 16 µM, the IC50 [9] was > 16 µM and the IC50 [10] was > 16 µM. For the same compound, the IC50 [11] was > 16 µM, the IC50 [12] was > 16 µM and the IC50 [13] was > 16 µM. The IC50 [14] was > 16 µM, the IC50 [15] was > 16 µM and the IC50 [16] was > 16 µM. The IC50 [17] was > 16 µM, the IC50 [18] was > 16 µM and the IC50 [19] was > 16 µM. For the same compound, the IC50 [20] was > 16 µM, the IC50 [21] was > 16 µM and the IC50 [22] was > 16 µM. The IC50 [23] was > 16 µM, the IC50 [24] was > 16 µM and the IC50 [25] was > 16 µM. For the same compound, the IC50 [26] was > 16 µM, the IC50 [27] was > 16 µM and the IC50 [28] was > 16 µM. For the same compound, the IC50 [29] was > 16 µM, the IC50 [30] was > 16 µM and the IC50 [31] was > 16 µM. For the same compound, the IC50 [32] was > 16 µM, the IC50 [33] was > 16 µM and the IC50 [34] was > 16 µM. The IC50 [35] was > 16 µM, the IC50 [36] was > 16 µM and the IC50 [37] was > 16 µM. The IC50 [38] was > 16 µM, the IC50 [39] was > 16 µM and the IC50 [40] was > 16 µM. The IC50 [41] was > 16 µM, the IC50 [42] was > 16 µM and the IC50 [43] was > 16 µM. For the same compound, the IC50 [44] was > 16 µM, the IC50 [45] was > 16 µM and the IC50 [46] was > 16 µM. The IC50 [47] was > 16 µM and the IC50 [48] was > 16 µM.

In the case of `C#Cc1cccc(Nc2ncnc3cc(OCCOC)c(OCCOC)cc23)c1` [ERLOTINIB], the IC50 [1] is reported as > 2 µM, the IC50 [2] is reported as > 2 µM and the IC50 [3] is reported as > 2 µM. For the same compound, the IC50 [4] was > 2 µM, the IC50 [5] was > 2 µM and the IC50 [6] was > 2 µM. For the same compound, the IC50 [7] was > 2 µM, the IC50 [8] was > 2 µM and the IC50 [9] was > 2 µM. The IC50 [10] was > 2 µM, the IC50 [11] was > 2 µM and the IC50 [12] was > 2 µM. The IC50 [13] was > 2 µM, the IC50 [14] was > 2 µM and the IC50 [15] was > 2 µM. For the same compound, the IC50 [16] was > 2 µM, the IC50 [17] was > 2 µM and the IC50 [18] was > 2 µM. For the same compound, the IC50 [19] was > 2 µM, the IC50 [20] was > 2 µM and the IC50 [21] was > 2 µM. The IC50 [22] was > 2 µM, the IC50 [23] was > 2 µM and the IC50 [24] was 0.594 µM. For the same compound, the IC50 [25] was > 2 µM, the IC50 [26] was > 2 µM and the IC50 [27] was > 2 µM. For the same compound, the IC50 [28] was > 2 µM, the IC50 [29] was > 2 µM and the IC50 [30] was > 2 µM. For the same compound, the IC50 [31] was > 2 µM, the IC50 [32] was > 2 µM and the IC50 [33] was > 2 µM. The IC50 [34] was > 2 µM, the IC50 [36] was > 2 µM and the IC50 [37] was > 2 µM. The IC50 [38] was > 2 µM, the IC50 [39] was > 2 µM and the IC50 [40] was > 2 µM. The IC50 [41] was > 2 µM, the IC50 [42] was 0.148 µM and the IC50 [43] was > 2 µM. The IC50 [44] was > 2 µM, the IC50 [45] was > 2 µM and the IC50 [46] was > 2 µM. The IC50 [47] was > 2 µM and the IC50 [48] was > 2 µM.
